Results from patent publication US20240409585A1, “MACROCYCLIC IMMUNOMODULATORS” (priority 2021, published 2024).
Numbered stars: 1 amine (or outer) side, 2 acyl side, 3 side chain; on linkers, the order of the positions; unused ones are H or OH. Bridge positions count the residues as written; N and C are the ends. Square brackets hold non-standard residues; d marks the D form. Peptide text beside a SMILES is read from it. * marks the point of attachment. Bip(4'-COOH) = N[C@@H](Cc1ccc(-c2ccc(C(=O)O)cc2)cc1)C(=O)O; Bip(4'-NHAc) = CC(=O)Nc1ccc(-c2ccc(C[C@H](N)C(=O)O)cc2)cc1; Phe(3-CF3) = N[C@@H](Cc1cccc(C(F)(F)F)c1)C(=O)O; Ala(morpholin-4-yl) = N[C@@H](CN1CCOCC1)C(=O)O; Phe(4-CONH2) = NC(=O)c1ccc(C[C@H](N)C(=O)O)cc1; Phe(4-COOH) = N[C@@H](Cc1ccc(C(=O)O)cc1)C(=O)O; Phe(3,4-F2) = N[C@@H](Cc1ccc(F)c(F)c1)C(=O)O; Bip = N[C@@H](Cc1ccc(-c2ccccc2)cc1)C(=O)O; Abu(3R-NH2) = C[C@@H](N)[C@H](N)C(=O)O; Phe(3-Me) = Cc1cccc(C[C@H](N)C(=O)O)c1; Propanoyl(3,3,3-F3) = O=C(CC(F)(F)F)*; Val(3-OH) = CC(C)(O)[C@H](N)C(=O)O; X11 = CC(N)[C@H](N[*:1])C(=O)[*:2]; hPhe = N[C@@H](CCc1ccccc1)C(=O)O; Aad = N[C@@H](CCCC(=O)O)C(=O)O; Cha = N[C@@H](CC1CCCCC1)C(=O)O; Propanoyl(3-OH) = O=C(CCO)*; Carboxymethyl = O=C(O)C*; NMeA = CN[C@@H](C)C(=O)O; Orn = NCCC[C@H](N)C(=O)O; Dab = NCC[C@H](N)C(=O)O; Dap = NC[C@H](N)C(=O)O

These compounds were tested against T1, Alexa fluor-647 labeled human PD-L1-Ig binding to Jurkat cell line over-expressing human PD-1 (Homo sapiens, UniProt Q15116) (assay: Jurkat-PD-1 Cell Binding High-Content Screening Assay (CBA): Method 3 (Alexa fluor-647 labeled PD-L1-Ig)). Details: Jurkat-PD-1 cells, Alexa fluor-647 labeled PD-L1-Ig 177 nM; head μM; read-out: CBA Method 3 μM.
T1 construct: expressed in transfected cells; host or cells: Jurkat
T1 sequence (Q15116 25-288): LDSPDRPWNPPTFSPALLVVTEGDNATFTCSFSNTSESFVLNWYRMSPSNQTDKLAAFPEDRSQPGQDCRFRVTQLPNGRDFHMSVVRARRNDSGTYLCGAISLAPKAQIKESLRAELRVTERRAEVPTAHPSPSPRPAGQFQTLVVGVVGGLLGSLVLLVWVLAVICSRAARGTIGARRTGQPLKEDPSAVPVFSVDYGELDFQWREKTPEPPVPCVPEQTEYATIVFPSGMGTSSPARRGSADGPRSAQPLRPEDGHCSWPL
Method in brief: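 Jurkat cells over-expressing human PD-1 in RPMI/10% FCS were preincubated 2 h at 37 °C with compound, then exposed 1 h to Alexa fluor-647 labeled human PD-L1-Ig (177 nM final). Cells fixed in 4% paraformaldehyde with Hoechst 33342 and binding quantified by high-content imaging.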

IC50 [µM] | SMILES
0.03 | CC(C)C[C@H]1NC(=O)[C@H](C)N(C)C(=O)[C@H](Cc2ccc(C(=O)O)cc2)NC(=O)[C@H](Cc2ccc(-c3ccccc3)cc2)NC(=O)[C@H](CCc2ccccc2)NC(=O)[C@H](Cc2cccc(C(F)(F)F)c2)NC(=O)[C@H](CC(=O)O)NC(=O)[C@H](Cc2ccc(C(=O)O)cc2)NC(=O)[C@H](CN2CCOCC2)NC(=O)CSC[C@@H](C(=O)N[C@@H](CCN)C(N)=O)NC(=O)[C@H](CNC(=O)CC(F)(F)F)NC(=O)[C@H](C(C)C)NC(=O)[C@H](CC2CCCCC2)NC(=O)[C@H](CCN)NC1=O [Example 5207] ({CH2CO}-[Ala(morpholin-4-yl)][Phe(4-COOH)]D[Phe(3-CF3)][hPhe][Bip][Phe(4-COOH)][NMeA][dL][Dab][Cha]V[Dap](Propanoyl(3,3,3-F3))C[Dab]-NH2; thioether N-14)
0.02 | CC(=O)Nc1ccc(-c2ccc(C[C@@H]3NC(=O)[C@H](Cc4cccc(C(F)(F)F)c4)NC(=O)[C@H](CC(=O)O)NC(=O)[C@H](Cc4ccc(-c5ccc(C(=O)O)cc5)cc4)NC(=O)[C@H](CN4CCOCC4)NC(=O)CSC[C@@H](C(=O)N[C@@H](CCN)C(N)=O)NC(=O)[C@H](CCC(N)=O)NC(=O)[C@H](C(C)(C)O)NC(=O)[C@H](CC4CCCCC4)NC(=O)[C@H](CCN)NC(=O)[C@@H](CC(C)C)NC(=O)[C@H](C)N(C)C(=O)[C@H](Cc4ccc(C(=O)O)cc4)NC(=O)[C@H](Cc4ccc(-c5ccccc5)cc4)NC3=O)cc2)cc1 [Example 5296] ({CH2CO}-[Ala(morpholin-4-yl)][Bip(4'-COOH)]D[Phe(3-CF3)][Bip(4'-NHAc)][Bip][Phe(4-COOH)][NMeA][dL][Dab][Cha][Val(3-OH)]QC[Dab]-NH2; thioether N-14)
0.06 | Cc1cccc(C[C@@H]2NC(=O)[C@H](CC(=O)O)NC(=O)[C@H](Cc3ccc(-c4ccc(C(=O)O)cc4)cc3)NC(=O)[C@H](CN3CCOCC3)NC(=O)CSC[C@@H](C(=O)N[C@@H](CCN)C(N)=O)NC(=O)[C@H](CO)NC(=O)[C@H](C(C)(C)O)NC(=O)[C@H](CC3CCCCC3)NC(=O)[C@H](CC(N)=O)NC(=O)[C@@H](CC(C)C)NC(=O)[C@H](C)N(C)C(=O)[C@H](Cc3ccc(OCC(=O)O)cc3)NC(=O)[C@H](Cc3ccc(-c4ccccc4)cc3)NC(=O)[C@H](Cc3ccc(-c4ccc(C(=O)O)cc4)cc3)NC2=O)c1 [Example 5130] ({CH2CO}-[Ala(morpholin-4-yl)][Bip(4'-COOH)]D[Phe(3-Me)][Bip(4'-COOH)][Bip]Y(Carboxymethyl)[NMeA][dL]N[Cha][Val(3-OH)]SC[Dab]-NH2; thioether N-14)
0.0022 | CC(=O)Nc1ccc(-c2ccc(C[C@@H]3NC(=O)[C@H](Cc4cccc(C)c4)NC(=O)[C@H](CC(=O)O)NC(=O)[C@H](Cc4ccc(C(=O)O)cc4)NC(=O)[C@H](CN4CCOCC4)NC(=O)CSC[C@@H](C(=O)N[C@@H](CCN)C(N)=O)NC(=O)[C@H](CCCC(=O)O)NC(=O)[C@H](C(C)C)NC(=O)[C@H](CC4CCCCC4)NC(=O)[C@H](CCN)NC(=O)[C@@H](CC(C)C)NC(=O)[C@H](C)N(C)C(=O)[C@H](Cc4ccc(C(=O)O)cc4)NC(=O)[C@H](Cc4ccc(-c5ccccc5)cc4)NC3=O)cc2)cc1 [Example 5255] ({CH2CO}-[Ala(morpholin-4-yl)][Phe(4-COOH)]D[Phe(3-Me)][Bip(4'-NHAc)][Bip][Phe(4-COOH)][NMeA][dL][Dab][Cha]V[Aad]C[Dab]-NH2; thioether N-14)
0.33 | CC(C)C[C@H]1NC(=O)[C@H](C)N(C)C(=O)[C@H](CCC(N)=O)NC(=O)[C@H](Cc2ccc(-c3ccccc3)cc2)NC(=O)[C@H](CCc2ccccc2)NC(=O)[C@H](Cc2cccc(C(F)(F)F)c2)NC(=O)[C@H](CC(=O)O)NC(=O)[C@H](Cc2ccc(OCC(=O)O)cc2)NC(=O)[C@H](CC2CCCCC2)NC(=O)CSC[C@@H](C(=O)N[C@@H](CCN)C(N)=O)NC(=O)[C@H](CCC(=O)O)NC(=O)[C@H](C(C)C)NC(=O)[C@H](CC2CCCCC2)NC(=O)[C@H](CCN)NC1=O [Example 5213] ({CH2CO}-[Cha]Y(Carboxymethyl)D[Phe(3-CF3)][hPhe][Bip]Q[NMeA][dL][Dab][Cha]VEC[Dab]-NH2; thioether N-14)
0.03 | Cc1cccc(C[C@@H]2NC(=O)[C@H](CC(=O)O)NC(=O)[C@H](Cc3ccc(C(=O)O)cc3)NC(=O)[C@H](C)NC(=O)CSC[C@@H](C(=O)N[C@@H](CCN)C(N)=O)NC(=O)[C@H](CCC(=O)O)NC(=O)[C@H](C(C)C)NC(=O)[C@H](CC3CCCCC3)NC(=O)[C@H](CCN)NC(=O)[C@@H](CC(C)C)NC(=O)[C@H](C)N(C)C(=O)[C@H](Cc3ccc(OCC(=O)O)cc3)NC(=O)[C@H](Cc3ccc(-c4ccccc4)cc3)NC(=O)[C@H](Cc3ccc(C(=O)O)cc3)NC2=O)c1 [Example 5138] ({CH2CO}-A[Phe(4-COOH)]D[Phe(3-Me)][Phe(4-COOH)][Bip]Y(Carboxymethyl)[NMeA][dL][Dab][Cha]VEC[Dab]-NH2; thioether N-14)
0.3 | Cc1cccc(C[C@@H]2NC(=O)[C@H](CC(=O)O)NC(=O)[C@H](Cc3ccc(OCC(=O)O)cc3)NC(=O)[C@H](Cc3ccc(F)c(F)c3)NC(=O)CSC[C@@H](C(=O)N[C@@H](CCN)C(N)=O)NC(=O)[C@H](CCCN)NC(=O)[C@H](C(C)C)NC(=O)[C@H](CC3CCCCC3)NC(=O)[C@H](CCN)NC(=O)[C@@H](CC(C)C)NC(=O)[C@H](C)N(C)C(=O)[C@H](CCC(N)=O)NC(=O)[C@H](Cc3ccc(-c4ccccc4)cc3)NC(=O)[C@H](Cc3ccc(C(=O)O)cc3)NC2=O)c1 [Example 5285] ({CH2CO}-[Phe(3,4-F2)]Y(Carboxymethyl)D[Phe(3-Me)][Phe(4-COOH)][Bip]Q[NMeA][dL][Dab][Cha]V[Orn]C[Dab]-NH2; thioether N-14)

Same assay, conditions: Jurkat-PD-1 cells, Alexa fluor-647 labeled PD-L1-Ig 177 nM; nM; read-out: CBA Method 3

IC50 [µM] | SMILES
0.0063 | CC(=O)Nc1ccc(-c2ccc(C[C@@H]3NC(=O)[C@H](Cc4cccc(C(F)(F)F)c4)NC(=O)[C@H](CC(=O)O)NC(=O)[C@H](Cc4ccc(C(=O)O)cc4)NC(=O)[C@H]([C@@H](C)N)NC(=O)CSC[C@@H](C(=O)N[C@@H](CCN)C(N)=O)NC(=O)[C@H](CCC(=O)O)NC(=O)[C@H](C(C)C)NC(=O)[C@H](CC4CCCCC4)NC(=O)[C@H](CCN)NC(=O)[C@@H](CC(C)C)NC(=O)[C@H](C)N(C)C(=O)[C@H](Cc4ccc(C(=O)O)cc4)NC(=O)[C@H](Cc4ccc(-c5ccccc5)cc4)NC3=O)cc2)cc1 [Example 5154] ({CH2CO}-[Abu(3R-NH2)][Phe(4-COOH)]D[Phe(3-CF3)][Bip(4'-NHAc)][Bip][Phe(4-COOH)][NMeA][dL][Dab][Cha]VEC[Dab]-NH2; thioether N-14)
0.0009 | CC(=O)Nc1ccc(-c2ccc(C[C@@H]3NC(=O)[C@H](Cc4cccc(C(F)(F)F)c4)NC(=O)[C@H](CC(=O)O)NC(=O)[C@H](Cc4ccc(C(=O)O)cc4)NC(=O)[C@H](C(C)N)NC(=O)CSC[C@@H](C(=O)N[C@@H](CCN)C(N)=O)NC(=O)[C@H](CNC(=O)CCO)NC(=O)[C@H](C(C)C)NC(=O)[C@H](CC4CCCCC4)NC(=O)[C@H](CCN)NC(=O)[C@@H](CC(C)C)NC(=O)[C@H](C)N(C)C(=O)[C@H](Cc4ccc(C(N)=O)cc4)NC(=O)[C@H](Cc4ccc(-c5ccccc5)cc4)NC3=O)cc2)cc1 (stereo partly drawn) [Example 5148] ({CH2CO}-[X11][Phe(4-COOH)]D[Phe(3-CF3)][Bip(4'-NHAc)][Bip][Phe(4-CONH2)][NMeA][dL][Dab][Cha]V[Dap](Propanoyl(3-OH))C[Dab]-NH2; thioether N-14)
0.0016 | Cc1cccc(C[C@@H]2NC(=O)[C@H](CC(=O)O)NC(=O)[C@H](Cc3ccc(OCC(=O)O)cc3)NC(=O)[C@H](C(C)(C)O)NC(=O)CSC[C@@H](C(=O)N[C@@H](CCN)C(N)=O)NC(=O)[C@H](CCCN)NC(=O)[C@H](C(C)C)NC(=O)[C@H](CC3CCCCC3)NC(=O)[C@H](CCN)NC(=O)[C@@H](CC(C)C)NC(=O)[C@H](C)N(C)C(=O)[C@H](CCC(N)=O)NC(=O)[C@H](Cc3ccc(-c4ccccc4)cc3)NC(=O)[C@H](Cc3ccc(C(=O)O)cc3)NC2=O)c1 [Example 5275] ({CH2CO}-[Val(3-OH)]Y(Carboxymethyl)D[Phe(3-Me)][Phe(4-COOH)][Bip]Q[NMeA][dL][Dab][Cha]V[Orn]C[Dab]-NH2; thioether N-14)
0.0021 | CC(C)C[C@H]1NC(=O)[C@H](C)N(C)C(=O)[C@H](CCC(N)=O)NC(=O)[C@H](Cc2ccc(-c3ccccc3)cc2)NC(=O)[C@H](CCc2ccccc2)NC(=O)[C@H](Cc2cccc(C(F)(F)F)c2)NC(=O)[C@H](CC(=O)O)NC(=O)[C@H](Cc2ccc(O)cc2)NC(=O)[C@H]([C@@H](C)N)NC(=O)CSC[C@@H](C(=O)N[C@@H](CCN)C(N)=O)NC(=O)[C@H](CCC(N)=O)NC(=O)[C@H](C(C)C)NC(=O)[C@H](CC2CCCCC2)NC(=O)[C@H](CCN)NC1=O [Example 5242] ({CH2CO}-[Abu(3R-NH2)]YD[Phe(3-CF3)][hPhe][Bip]Q[NMeA][dL][Dab][Cha]VQC[Dab]-NH2; thioether N-14)
